# Patent US6699901B1, “Dicarboxylato diammine platinum derivatives and compositions comprising them as anti-tumor agents” (priority 2000, dated 2004)
# “Also recorded” adds a separate entry of the source.
# Assays:
# [1] = system: hepatic cancer H22 cells; test: Carcinostatic rates on hepatic cancer H22 in Kunming mice; assay type: in vivo; conditions: for Tumor Weight: daily for seven days; for Mice After Injection: 10 mice before injection
# Experimental: a). Divided 40 Kunming mice with weight ranging from 21 to 22 g, half male and half female randomly into 4 groups. Every group had 10 mice. Inoculated every mouse with 0.2 ml hepatic cancer H22 cells subcutaneously in right abdomen. […] The control group was given normal saline IP. The mice were put to death the day after withdrawal. Weighed the bodies and the tumor, calculated the carcinostatic rates.
# [2] = system: human hepatic cancer BEL-7402 cells; test: Dynamic growth of BEL-7402 cells cultured in vitro; assay type: cell-based; conditions: 10 μg/ml and 20 μg/ml, observed for eight days
# Experimental: 1. […] From the third day on, the survival cells in the treated group were less than that in the control group, in which the cells grew logarithmically while those in the treated group decreased gradually. The difference among the groups became wider as time went by; moreover, the survival cells of 20 μg/ml group were less than those of 10 μg/ml group.
# c). […] Then observed the dynamic growth of the cells for eight days. […] From the third day on, the cells in the control group grew logarithmically while those in the treated group decreased gradually. The difference among the groups became wider as time went by.
# [3] = system: rats; test: Long-term toxicity experiments in rats
# From the text: Thus we can not only know the target organs of toxic reactions and the reversibility of the damages through observing the main body reactions and degrees of injuries after three months of administration, but also determine nontoxic dose to provide reference for therapeutic safe dose.
# c). […] Weighed the rats once a week and adjusted doses according to weight changes. Stopped administration after 12 weeks and continued observing for 2 weeks.
# [4] = Toxic reactions in clinical trial (five-degree classification by WHO); assay type: in vivo, human
# [5] = system: carnuncle S180; test: Carcinostatic rates against carnuncle S180 in mice; assay type: in vivo, Kunming mice; conditions: for Mice After Injection: 10 mice before injection
# [6] = system: cancer; test: Typical cases treated by oral capsules and injections; assay type: in vivo, human
# From the text: 1. The oral capsules were composed of bicycloplatin and adjuvant.
# 2. […] A course of treatment took 6 times (12 ampoules). The second course of treatment began after an interval of two weeks. After three consecutive courses of treatment, general examination was taken.
# [7] = system: human hepatic cancer BEL-7402 cells; test: Ultra-microstructure of BEL-7402 cells by transmission electronic microscope; assay type: cell-based; conditions: different doses
# From the text: 3. […] Then the changes of the ultra-microstructure were observed via transmission electronic microscope. […] The vacuoles and the lipid drop in the plasma increased drastically until necrotic changes, karyopyknosis, karyorrhexis, karyolysis and complete disintegration occurred (FIG. 6-FIG. 11).
# e). […] The cells untreated appeared in the shape of irregular polygon, with abundant microvilli on the cell surface, plentiful organelles and different amount of glycogen granules in the plasma. […] The vacuoles and the lipid drop in the plasma increased drastically until necrotic changes, karyopyknosis, karyorrhexis, karyolysis and complete disintegration occurred.
# [8] = Effectiveness on oral administration; assay type: in vivo
# [9] = system: gastric cancer BGC-823 cells; test: Determination of IC50, MTT, BGC-823 cells; assay type: cell-based
# Experimental: a). Cultured gastric cancer BGC-823 cells in RPMJ-1640 nutritional fluid containing 15% fetal calf serum; then inoculated them onto 96-well culture plate, 1×10^4 cells per well; Put it in an incubator with temperature of 37° C. and 5% of CO2. […] After 72 hours of culture, added MTT fluid. An hour later, DMSO was added for coloration. OD value was assayed with enzyme labeling instrument. Finally, calculated the response rate of the drug in each concentration and determined IC50 based on the coordinate process.
# [10] = system: human oral cancer KB cells; test: Determination of IC50, MTT, KB cells; assay type: cell-based; conditions: for Response rate: KB
# [11] = Antitumor effects (test not specified)
# [12] = system: melanoma cells; test: Selective killing experiment, melanoma cells; assay type: cell-based, human; conditions: within a certain range of doses
# [13] = system: lung cancer cells; test: Selective killing experiment, lung cancer cells; assay type: cell-based, human; conditions: within a certain range of doses
# [14] = system: human breast cancer, lung cancer, hepatic cancer, colorectal cancer and ovary cancer; test: Nude mice inoculation carcinostatic rate experiments, human cancers; assay type: in vivo; conditions: for response carcinostatic rate: injected abdominally
# Experimental: The mice were divided into three groups, which were given large dose (LD50×⅕), middle dose (LD50× 1/10) and small dose (LD50× 1/20) respectively. […] Beijing's institute for drug control carried out human hepatic cancer H22 nude mice inoculation carcinostatic rate experiments. […] Every group was given 0.2 ml every time per day for seven consecutive days. The mice were put to death thirty days after inoculation.
# [15] = 12th week of administration and 2 weeks after withdrawal
# [16] = rats, oral LD50/10 once a day for 90 days
substance,measurement,setting,value
"double 1,1-cyclobutane dicarboxylic acid diaminoplatin complex [bicycloplatin]",Body Weight After Injection,"[1]; H22, 10 mg/kg",27.9 g
same,Response rate,"[1]; H22, 10 mg/kg",40.4%
same,Tumor Weight,"[1]; H22, 10 mg/kg abdominally",0.95 ± 0.29 g
same,Mice After Injection,"[1]; H22, 10 mg/kg",10
same,Body Weight After Injection,"[1]; H22, 20 mg/kg",24.4 g
same,Response rate,"[1]; H22, 20 mg/kg",67.0%
same,Tumor Weight,"[1]; H22, 20 mg/kg abdominally",0.53 ± 0.26 g
same,Mice After Injection,"[1]; H22, 20 mg/kg",10
same,Body Weight After Injection,"[1]; H22, 30 mg/kg",22.4 g
same,Response rate,"[1]; H22, 30 mg/kg",78.6%
same,Tumor Weight,"[1]; H22, 30 mg/kg abdominally",0.34 ± 0.09 g
same,Mice After Injection,"[1]; H22, 30 mg/kg",10
same,mortality,"[1]; H22, 10-30 mg/kg",no mortality occurs
same,weight gain of the treated groups,"[1]; H22, 10-30 mg/kg, versus control group",less than that of the control group
same,inhibition of growth of BEL-7402 cells,[2],could inhibit the growth of human hepatic cancer BEL-7402 cells cultured in vitro dependent on time and dose; also recorded: potent antitumor effects on human hepatic cancer BEL-7402 cells dependent on doses
same,"BUN, GPT, GOT versus control group",[3]; [15],no significant difference
same,"WBC, RBC, hemoglobin, platelet",[3]; [15],all within normal ranges
same,"histological examination, livers and spleens",[3]; after observation,different degrees of hyperemia and edema
same,"histological examination, other visceras",[3]; after observation,No organic changes caused by the drug are found
same,other visceral coefficients,[3]; after observation,all normal
same,weights of the livers,"[3]; after observation, versus control group",slightly heavier than that of the control group
same,"diet, activity and state of the rats",[3]; [16],no obvious abnormality
same,mortality,[3]; [16],No mortally occurred
same,injuries of the drug to viscera,"[3]; rats, three months of administration",dose-dependent
same,damage and recovery,[3]; small dose,does a little damage to the group and the group can recover fully
same,reversibility of injuries,[3]; therapeutic dose,alleviated after one month of withdrawal
same,adverse reactions,[4],no adverse reactions occur
same,antitumor effects on S180,[5]; 10-30 mg/kg,potent antitumor effects on S180 dependent on doses
same,Body Weight After Injection,"[5]; S180, 10 mg/kg",25.8 g
same,Response rate,"[5]; S180, 10 mg/kg",39.7%
same,Tumor Weight,"[5]; S180, 10 mg/kg",1.03 ± 0.30 g
same,Mice After Injection,"[5]; S180, 10 mg/kg",10
same,Body Weight After Injection,"[5]; S180, 20 mg/kg",18.1 g
same,Response rate,"[5]; S180, 20 mg/kg",68.0%
same,Tumor Weight,"[5]; S180, 20 mg/kg",0.54 ± 0.16 g
same,Mice After Injection,"[5]; S180, 20 mg/kg",10
same,Body Weight After Injection,"[5]; S180, 30 mg/kg",21.5 g
same,Response rate,"[5]; S180, 30 mg/kg",71.0%
same,Tumor Weight,"[5]; S180, 30 mg/kg",0.49 ± 0.16 g
same,Mice After Injection,"[5]; S180, 30 mg/kg",10
same,tumor,"[6]; Patient Li, end of the 2nd course of treatment",basically disappeared
same,lung metastatic carcinoma,"[6]; Patient Ma, hepatic cancer, capsules and injections, after two months",disappeared
same,outcome,"[6]; Patient Meng, adenocarcinoma of lung at late stage, injections and oral capsules",cured in general
same,final outcome,"[6]; Patient Wang, late hepatic cancer",the tumor disappeared
same,outcome,"[6]; Patient Yang, melanoma, metastasis to liver and lung, 36 ampoules",The metastatic tumors had been cured and the melanoma had necrosed
same,three masses with size of 2×2 cm^2,"[6]; Patient Zhu, cystic cancer, oral capsules",disappeared completely
same,metastasis to liver,"[6]; foreign patient, intestinal cancer, 36 ampoules and 36 oral capsules",disappeared
same,cell death,[7],Five days later cell death occurred
same,changes of the ultra-microstructure,[7],degenerative changes of different degrees with the increase of the concentration of drug; also recorded: degenerative changes of different degrees with the increase of the concentration of bicycloplatin
same,effectiveness on oral administration,[8],significant therapeutic effects
same,Response rate,"[9]; BGC-823, 0.78 μg/ml",6.0%
same,Response rate,"[9]; BGC-823, 1.56 μg/ml",19.0%
same,Response rate,"[9]; BGC-823, 3.13 μg/ml",21.0%
same,Response rate,"[9]; BGC-823, 6.25 μg/ml",33.0%
same,Response rate,"[9]; BGC-823, 12.5 μg/ml",51.0%
same,Response rate,"[9]; BGC-823, 25 μg/ml",60.0%
same,Response rate,"[9]; BGC-823, 50 μg/ml",74.6%
same,Response rate,"[9]; BGC-823, 100 μg/ml",80.3%
same,Response rate,"[9]; BGC-823, 200 μg/ml",83.3%
same,IC50,"[9]; BGC-823, 72 hours",IC50 = 14.80 ± 1.34 μg/ml
same,IC50,"[10]; KB cells, 72 hours",IC50 = 13.24 ± 1.33 μg/ml
same,Response rate,[10]; 0.78 μg/ml,5.9%
same,Response rate,[10]; 1.56 μg/ml,14.8%
same,Response rate,[10]; 3.13 μg/ml,28.2%
same,Response rate,[10]; 6.25 μg/ml,26.2%
same,Response rate,[10]; 12.5 μg/ml,36.7%
same,Response rate,[10]; 25 μg/ml,66.6%
same,Response rate,[10]; 50 μg/ml,77.1%
same,Response rate,[10]; 100 μg/ml,93.0%
same,Response rate,[10]; 200 μg/ml,93.3%
same,antitumor spectrum,[11],Broad Antitumor Spectrum
same,melanoma cells (melanophore) killed,[12],80%
same,lung cancer cells killed,[13],50%
same,response carcinostatic rate,[14]; large dose (LD50×⅕),90%
same,response carcinostatic rate,[14]; middle dose (LD50×1/10),95%
same,response carcinostatic rate,[14]; small dose (LD50×1/20),70%
same,carcinostatic rates,"[14]; same doses given by stomach lavage, compared with abdominal injection",a little lower carcinostatic rates
